Measurements taken from patent US10104891B2 (priority 2014, dated 2018).

What was measured:
Type in all cases: in vivo
Plasmopara viticola = assay: Test 3: control effect against grape downy mildew; conditions: control value vs untreated section; for pest or weed control at 4 µg/mL: Plasmopara viticola, 120 h
Method: (§1) A 10% wettable powder created according to the Pharmaceutical Formulation Example 1 was diluted with a Tween20 solution prepared to a concentration of 1/5000, then the compound of formula [1] was prepared to a concentration of 4 ppm. Further, the compound of formula [1] in Test 4 was adjusted to a concentration of 1,000 ppm.
<Test 3 Test of Control Effect Against Grape Downy Mildew>
(§2) Test suspension was applied to grape seedling (species: Neomuscat) in an amount of 20 ml per seedling. One day after application, zoospore suspension of Plasmopara viticola adjusted to a concentration of 1.0×10^4 units/ml was misted/inoculated, and the seedlings were incubated in a moist chamber adjusted to 22° C. for 16 hr. Then, the onset of the disease was induced in the chamber, and the lesion area rate on the leaves 5 days after inoculation was investigated to compute the control value using the formula below. control value={1−onset area rate of the leaves that were applied the test agent/onset area rate of untreated leaves}×100 Computational formula of the control value: […]

[1] = test system: Pseudoperonospora cubensis; assay: Test 2: control effect against cucumber downy mildew; conditions: control value vs untreated section; for pest or weed control at 4 µg/mL: Pseudoperonospora cubensis, 120 h
Method: as §1
<Test 2 Test of Control Effect Against Cucumber Downy Mildew>
as §2, with “cucumber at the 2 leaf stage” for “grape seedling”, “Sagami hanjiro)” for “Neomuscat)”, “Pseudoperonospora cubensis” for “Plasmopara viticola”

Phytophthora infestans = assay: whole plant or invertebrate; conditions: for control value (Test 1): tomato late blight, control value vs untreated section; for pest or weed control at 4 µg/mL: Phytophthora infestans, in Solanum lycopersicum, 96 h, read-out: control value (Test 1)

Compound	control value (Test 3) (Plasmopara viticola)	control value (Test 2) [1]	control value (Test 1) (Phytophthora infestans)	pest or weed control at 4 µg/mL (Plasmopara viticola) [%]	pest or weed control at 4 µg/mL [1] [%]	pest or weed control at 4 µg/mL (Phytophthora infestans) [%]
COc1ccc(Cl)c2c1COC(c1csc(C3CCN(C(=O)Cn4nc(C(F)(F)F)cc4C(F)(F)F)CC3)n1)OC2 (stereo not drawn) [Compound 1-110]	100	100	100			
COc1ccc(C)c2c1COC(c1csc(C3CCN(C(=O)Cc4cc(Cl)ccc4Cl)CC3)n1)OC2 (stereo not drawn) [Compound 2-46]	100	100	100			
Cc1cc(C(F)(F)F)nn1CC(=O)N1CCC(c2nc(C3OCc4cccc(NS(C)(=O)=O)c4CO3)cs2)CC1 (stereo not drawn) [Compound 1-43]	100	100	80			
CCCCS(=O)(=O)Oc1cccc2c1COC(c1csc(C3CCN(C(=O)Cn4nc(C(F)F)cc4C(F)F)CC3)n1)OC2 (stereo not drawn) [Compound 1-54]	100	100	100			
Cc1cc(C(F)(F)F)nn1CC(=O)N1CCC(c2nc(C3OCc4c(F)ccc(OS(C)(=O)=O)c4CO3)cs2)C(C)C1 (stereo not drawn) [Compound 1-157]	100	100	100			
Cc1ccc(C)c(NC(=O)N2CCC(c3nc(C4OCc5c(F)ccc(OS(C)(=O)=O)c5CO4)cs3)CC2)c1 (stereo not drawn) [Compound 2-14]	100	100	100			
CC(C)S(=O)(=O)Oc1cccc2c1COC(c1csc(C3CCN(C(=O)Cn4nc(C(F)(F)F)cc4C(F)(F)F)CC3)n1)OC2 (stereo not drawn) [Compound 1-67]	100	100	100			
CS(=O)(=O)Oc1ccc(Cl)c2c1COC(c1csc(C3CCN(C(=O)Cn4nc(C(F)(F)F)cc4C(F)(F)F)CC3)n1)OC2 (stereo not drawn) [Compound 1-118]	100	100	100			
CC1OC(c2csc(C3CCN(C(=O)Cn4nc(C(F)F)cc4C(F)F)CC3)n2)OCc2ccccc21 (mixture of isomers) [Compound 1-75]	100	100	100			
Cc1cc(C(F)(F)F)nn1CC(=O)N1CCN(c2nc(C3OCc4cccc(OS(C)(=O)=O)c4CO3)cs2)CC1 (stereo not drawn) [Compound 1-127]	100	100	100			
CO/C(=N\c1cc(C)ccc1C)N1CCC(c2nc(C3OCc4cccc(OS(C)(=O)=O)c4CO3)cs2)CC1 (stereo not drawn) [Compound 4-1, 4-[4-(6-methylsulfonyloxy-1,5-dihydro-3H-2,4-benzodioxepin-3-yl)-2-thiazolyl]-1-[(Z)-[(2,5-dimethylphenyl)imino](methoxy)methyl]piperidine]				100	100	100
CC(C(=O)N1CCC(c2nc(C3OCc4c(F)ccc(OS(C)(=O)=O)c4CO3)cs2)CC1)n1nc(C(F)F)cc1C(F)F (stereo not drawn) [Compound 1-160]	100	100	100			
CS(=O)(=O)Oc1ccc(F)c2c1COC(c1csc(C3CCN(C(=O)Cc4cc(Cl)ccc4Cl)CC3)n1)OC2 (stereo not drawn) [Compound 2-16]	100	100	100			
O=C(Cn1nc(C(F)F)cc1C(F)F)N1CCC(c2nc(C3OCc4ccc(F)cc4CO3)cs2)CC1 (stereo not drawn) [Compound 1-80]	100	100	100			
Cc1cc(C(F)(F)F)nn1CC(=O)N1CCC(c2nc(C3OCc4cccc(C=NN(C)C)c4CO3)cs2)CC1 (stereo not drawn) [Compound 1-71]	100	100	100			
N#Cc1cccc2c1COC(c1csc(C3CCN(C(=O)Cn4nc(C(F)(F)F)cc4C(F)(F)F)CC3)n1)OC2 (stereo not drawn) [Compound 1-150]	100	100	100			
COc1ccc(OS(C)(=O)=O)c2c1COC(c1csc(C3CCN(C(=O)Cn4nc(C)cc4C)CC3)n1)OC2 (stereo not drawn) [Compound 1-115, 4-[4-(6-methoxy-9-methylsulfonyloxy-1,5-dihydro-3H-2,4-benzodioxepin-3-yl)-2-thiazolyl]-1-[2-[3,5-dimethyl-1H-pyrazole-1-yl]acetyl]piperidine]				100	100	100
Cc1ccc(C)c(CC(=O)N2CCC(c3nc(C4OCc5c(F)ccc(OS(C)(=O)=O)c5CO4)cs3)CC2)c1 (stereo not drawn) [Compound 2-8]	100	100	100			

Compound	control value (Test 3) (Plasmopara viticola)	control value (Test 2) [1]	control value (Test 1) (Phytophthora infestans)	pest or weed control at 4 µg/mL (Plasmopara viticola) [%]	pest or weed control at 4 µg/mL [1] [%]	pest or weed control at 4 µg/mL (Phytophthora infestans) [%]
Cc1ccc(C)c(CC(=O)N2CCC(c3nc(C4OCc5c(OS(C)(=O)=O)ccc(OS(C)(=O)=O)c5CO4)cs3)CC2)c1 [Compound 2-53]	100	100	100			
Cc1ccc(C)c(CC(=O)N2CCC(c3nc(C4OCc5c(Cl)ccc(OS(C)(=O)=O)c5CO4)cs3)CC2)c1 (stereo not drawn) [Compound 2-38]	100	100	100			
COc1ccc(Br)c2c1COC(c1csc(C3CCN(C(=O)Cn4nc(C(F)(F)F)cc4C(F)(F)F)CC3)n1)OC2 (stereo not drawn) [Compound 1-82]	100	100	100			
CS(=O)(=O)Oc1ccc(F)c2c1COC(c1csc(C3CCN(C(=O)CON=CC(F)(F)F)CC3)n1)OC2 (stereo not drawn) [Compound 3-3]	100	100	100			
COc1ccc(OS(C)(=O)=O)c2c1COC(c1csc(C3CCN(C(=O)Cn4nc(C(F)F)cc4C(F)F)CC3)n1)OC2 (stereo not drawn) [Compound 1-39, 4-[4-(6-methoxy-9-methylsulfonyloxy-1,5-dihydro-3H-2,4-benzodioxepin-3-yl)-2-thiazolyl]-1-[2-[3,5-bis(difluoromethyl)-1H-pyrazole-1-yl]acetyl]piperidine]				100	100	100
O=C(Cn1nc(C(F)F)cc1C(F)F)N1CCC(c2nc(C3OCc4ccccc4CO3)cs2)CC1 [Compound 1-76]	100	100	100			
COc1ccc(Br)c2c1COC(c1csc(C3CCN(C(=O)Cn4nc(C(F)(F)F)cc4C)CC3)n1)OC2 (stereo not drawn) [Compound 1-24]	100	100	100			
O=C(Cn1nc(C(F)F)cc1C(F)F)N1CCC(c2nc(C3OCc4c(F)c(F)c(F)c(F)c4CO3)cs2)CC1 [Compound 1-55]	100	100	100			
Cc1cc(C(F)(F)F)nn1CC(=O)N1CCC(c2nc(C3OCc4ccc([N+](=O)[O-])cc4CO3)cs2)CC1 (stereo not drawn) [Compound 1-27]	100	100	100			
Cc1ccc(C)c(CC(=O)N2CCC(c3nc(C4OCc5c(Br)ccc(OS(C)(=O)=O)c5CO4)cs3)CC2)c1 (stereo not drawn) [Compound 2-33]	100	100	20			
COc1ccc(Br)c2c1COC(c1csc(C3CCN(C(=O)Cc4cc(Cl)ccc4Cl)CC3)n1)OC2 (stereo not drawn) [Compound 2-25]	100	100	40			
Cc1cc(C(F)(F)F)nn1CC(=O)N1CCC(c2nc(C3OCc4c(Cl)ccc(OS(C)(=O)=O)c4CO3)cs2)CC1 (stereo not drawn) [Compound 1-65]	100	100	100			
CC(C)S(=O)(=O)Oc1cccc2c1COC(c1csc(C3CCN(C(=O)Cn4nc(C(F)F)cc4C(F)F)CC3)n1)OC2 (stereo not drawn) [Compound 1-53]	100	100	100			
O=C(Cn1nc(C(F)F)cc1C(F)F)N1CCC(c2nc(C3OCc4cccc(-c5ccccc5)c4CO3)cs2)CC1 (stereo not drawn) [Compound 1-73]	100	100	90			
CS(=O)(=O)Oc1cccc2c1COC(c1csc(N3CCN(C(=O)Cn4nc(C(F)F)cc4C(F)F)CC3)n1)OC2 (stereo not drawn) [Compound 1-151]	100	100	100			
COc1cccc2c1COC(c1csc(C3CCN(C(=O)Cn4nc(C(F)(F)F)cc4C)CC3)n1)OC2 (stereo not drawn) [Compound 1-135]	100	100	100			
COc1cccc2c1COC(c1csc(C3CCN(C(=O)Cc4cc(C)ccc4C)CC3)n1)OC2 (stereo not drawn) [Compound 2-50]	100	100	100			
